Measured values published in the CheMixHub ionic liquid set.

Assay: xn = mol fraction of the nth substance listed
Details: 298.15 K, 101 kPa

OC1OC[C@@H](O)[C@H](O)[C@H]1O (stereo partly specified) + O + CCCCCC[n+]1ccn(C)c1.[Br-]
Details	viscosity [mPa·s]
x1 = 0.0001973, x3 = 0.001843	0.957
x1 = 0.000198, x3 = 0.003653	1.007
x1 = 0.0002099, x3 = 0.005424	1.054
x1 = 0.0002123, x3 = 0.007151	1.106
x1 = 0.0003779, x3 = 0.001843	0.961
x1 = 0.0003808, x3 = 0.003652	1.011
x1 = 0.0003928, x3 = 0.005423	1.059
x1 = 0.0004009, x3 = 0.00715	1.112
x1 = 0.0005548, x3 = 0.001843	0.965
x1 = 0.000588, x3 = 0.003652	1.016
x1 = 0.0005968, x3 = 0.005422	1.064
x1 = 0.0005973, x3 = 0.007149	1.119
x1 = 0.000739, x3 = 0.001842	0.97
x1 = 0.0007594, x3 = 0.003651	1.02
x1 = 0.0007857, x3 = 0.007147	1.124
x1 = 0.0007911, x3 = 0.005421	1.069
x1 = 0.0009323, x3 = 0.001842	0.974
x1 = 0.0009495, x3 = 0.00365	1.025
x1 = 0.0009642, x3 = 0.00542	1.074
x1 = 0.0009957, x3 = 0.007146	1.13
x1 = 0.001116, x3 = 0.001842	0.979
x1 = 0.001147, x3 = 0.005419	1.079
x1 = 0.001153, x3 = 0.003649	1.029
x1 = 0.001184, x3 = 0.007144	1.134
x1 = 0.0013, x3 = 0.001841	0.982
x1 = 0.001326, x3 = 0.003649	1.034
x1 = 0.001352, x3 = 0.005418	1.083
x1 = 0.001359, x3 = 0.007143	1.138
x1 = 0.001475, x3 = 0.001841	0.986
x1 = 0.001497, x3 = 0.003648	1.039
x1 = 0.001552, x3 = 0.005417	1.089
x1 = 0.001588, x3 = 0.007142	1.143
x1 = 0.001657, x3 = 0.001841	0.99
x1 = 0.001681, x3 = 0.003648	1.042
x1 = 0.001708, x3 = 0.005416	1.09
x1 = 0.001731, x3 = 0.00714	1.148
